Literature values, collected in patent US20090291465A1, “Screening Method for Identifying New Drugs” (FUNDACIÓ PRIVADA PARC CIENTÍFIC DE BARCELONA, priority 2006, published 2009).

Legend:
[1] = system: isoleucyl-tRNA synthetases (IIeRS)
[2] = limits its use to topical applications

In the case of C/C(=C\C(=O)OCCCCCCCCC(=O)O)C[C@@H]1OC[C@H](C[C@@H]2O[C@H]2[C@@H](C)[C@H](C)O)[C@@H](O)[C@H]1O [Pseudomonic acid], the “selectivity for pathogen vs. mammalian IIeRS” value [1] is listed as about 8000 fold and the systemic bioavailability [2] is listed as “lack of systemic bioavailability”.
